Experimental findings from patent US20230066830A1, “METHODS AND COMPOSITIONS FOR INDUCING APOPTOSIS IN CANCER STEM CELLS” (VIRGINIA COMMONWEALTH UNIVERSITY, priority 2019, published 2023) are described below.

Structures are written as SMILES.

The test system of one assay is DU-145 and PC3-ML PCSCs. The experiment in a line: Live/Dead chemosensitivity of PCSCs with STAT3 inhibitor. It counts as cell-based, human. To be noted: STAT3 inhibitor with docetaxel or trichostatin-A. As for the experimental part:
Live/Dead cell imaging was performed to assess fluorescence based cell viability. Staining was performed as per the manufacturer's directions (Invitrogen™), which was followed by imaging utilizing laser confocal microscopy (Leica©). The images were analyzed by Zeiss© ZEN software. Docetaxel, STATTIC and Trichostatin-A (TSA) were obtained from Sigma. The PCSCs were serum-starved for 24 h and then treated with the drugs for 48 h at a 10 μM concentration (unless mentioned otherwise) prior to assessing the sensitivity of PCSCs to these drugs. DMSO treated cells were used as control. In vitro PDZ1i treatments occurred at 25 μM concentration. In vivo PDZ1i treatments occurred at 25 mg/kg body weight of the mice, 3 times a week for a month.
Take `O=[N+]([O-])c1ccc2c(c1)S(=O)(=O)C=C2` [STATTIC]: the “effect on PCSC chemosensitivity” value is “caused chemosensitivity to both docetaxel and trichostatin-A”.

Another assay deals with T1, PDZ1 domain of MDA-9/Syntenin (PDZ12) (Homo sapiens, UniProt O00560).
T1 construct: HSQC spectrum of 50 μM PDZ12 caused by compound at 1:1 molar ratio
T1 sequence (O00560 110-273 limits assumed): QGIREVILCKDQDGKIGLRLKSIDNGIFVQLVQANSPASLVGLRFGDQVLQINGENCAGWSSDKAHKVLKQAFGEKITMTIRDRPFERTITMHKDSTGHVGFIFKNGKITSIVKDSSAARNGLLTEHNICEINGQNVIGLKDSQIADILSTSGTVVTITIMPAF
The experiment in a line: [15N,1H] HSQC chemical shift change ranking of compound affinity. It counts as binding. As to conditions: chemical shift changes (DPPM) of backbone amide of residue 147, 50 μM PDZ12, compound at 1:1 molar ratio. The text has this: *Rank ordering of compound affinity for PDZ1 were estimated based on chemical shift changes (DPPM) of the backbone amide of residue 147 on the [^15N,^1H] […] Kd values reported in parentheses were obtained by NMR titration experiments following the chemical shifts of the backbone amide of residue 147 at different ligand concentrations.
Turning to `O=c1c2c([nH]c3nc(NCc4cccs4)nn13)CCC2` [cmpd3], the Binding affinity ranking is 1 (1 for DPPM 0.00-0.02). For `Cc1cc(=O)n2nc(C(=O)Nc3ccc(O)cc3)nc2[nH]1` [112D11], the Binding affinity ranking was 2 (2 for DPPM 0.02-0.04). On the same count and under the same terms, then `O=C(Nc1ccc(O)c(F)c1)c1nc2[nH]c3c(c(=O)n2n1)CCC3` [112F12], with 2 (2 for DPPM 0.02-0.04); and `Cc1cc(=O)n2nc(COc3ccccc3)nc2[nH]1` [30A9], with 4 (4 for DPPM 0.06-0.08). Still for that read-out and setting: as for `Cc1cc(NC(=O)c2nc3[nH]c4c(c(=O)n3n2)CCC4)c(C)cc1NC(=O)Cc1ccc(-c2ccccc2)cc1` [113B9], the entry is “N.B”. Still for that read-out and setting: as for `Cc1cc(=O)n2nc(CCc3ccccc3)nc2[nH]1` [cmpd2], the figure is 3 (3 for DPPM 0.04-0.06).

On to `Nc1ccc(NC(=O)c2nc3[nH]c4c(c(=O)n3n2)CCC4)cc1` [112G11], for which the Binding affinity ranking is 2 (2 for DPPM 0.02-0.04). The same measure, in the same setting: then `Cc1cc(=O)n2nc(C(=O)Nc3cccc(Cl)c3)nc2[nH]1` [cmpd10], with 4 (4 for DPPM 0.06-0.08); and `O=C(Nc1ccc(O)c(Cl)c1)c1nc2[nH]c3c(c(=O)n2n1)CCC3` [112F10], with 4 (4 for DPPM 0.06-0.08). As for `Cc1cc(=O)n2nc(C(=O)Nc3ccc(N)cc3)nc2[nH]1` [112E7], the Binding affinity ranking is 1 (1 for DPPM 0.00-0.02). On the same count and under the same terms, as for `O=c1[nH]c2sc3c(c2c2ncnn12)CCCC3` [cmpd6], the figure is 1 (1 for DPPM 0.00-0.02). Consider `Cc1cc(O)n2nc(C(=O)Nc3ccc(O)cc3)nc2n1` [112F1], for which the Binding affinity ranking is recorded as 1 (1 for DPPM 0.00-0.02). Still for that read-out and setting: then `O=c1c2c([nH]c3nc(CCc4ccccc4)nn13)CCC2` [cmpd13], with 3 (3 for DPPM 0.04-0.06).

As to `Cc1cc(NC(=O)c2nc3[nH]c4c(c(=O)n3n2)CCC4)c(C)cc1NC(=O)CCc1nnc(-c2ccsc2)o1` [113B11], the Binding affinity ranking is 3 (3 for DPPM 0.04-0.06).

Regarding `Cc1cc(=O)n2nc(C(=O)Nc3ccc4c(c3)OCCO4)nc2[nH]1` [cmpd7], the Binding affinity ranking is reported as 2 (2 for DPPM 0.02-0.04). Same read-out and setting: then `Cc1cc(=O)n2nc(C(=O)Nc3ccc(O)c(F)c3)nc2[nH]1` [112G2], with 4 (4 for DPPM 0.06-0.08); and `Cc1cc(=O)n2nc(C(=O)Nc3ccc4c(c3)OCO4)nc2[nH]1` [cmpd9], with 3 (3 for DPPM 0.04-0.06); and `Cc1cc(=O)n2nc(C(=O)Nc3cc(Cl)c(N)cc3Cl)nc2[nH]1` [112G4], with 6 (6 for DPPM above 0.1). Still for that read-out and setting: as for `Cc1[nH]c2nc(C(=O)NCc3ccccc3)nn2c(=O)c1C` [cmpd5], the figure is 2 (2 for DPPM 0.02-0.04); as for `Cc1cc(NC(=O)c2nc3[nH]c4c(c(=O)n3n2)CCC4)c(C)cc1NC(=O)CCc1nnc(-c2cccc(C(F)(F)F)c2)o1` [112H9], 2 (2 for DPPM 0.02-0.04); as for `O=C(Nc1ccc(O)cc1)c1nc2[nH]c3c(c(=O)n2n1)CCC3` [112E12], 1 (1 for DPPM 0.00-0.02).

As to `Cc1c(C)c(NC(=O)c2nc3[nH]c4c(c(=O)n3n2)CCC4)c(C)c(C)c1N` [113B8], the Binding affinity ranking was 5 (5 for DPPM 0.08-0.1). On the same count and under the same terms, as for `CCCc1cc(=O)n2nc(COc3ccccc3)nc2[nH]1` [cmpd14], the figure is 1 (1 for DPPM 0.00-0.02).

On to `Cc1cc(=O)n2nc(NCc3ccccc3)nc2[nH]1` [cmpd1], for which the Binding affinity ranking is given as 2 (2 for DPPM 0.02-0.04). Still for that read-out and setting: as for `Cc1cc(=O)n2nc(SCc3ccccc3)nc2[nH]1` [cmpd4], the figure is 4 (4 for DPPM 0.06-0.08).

As to `Cc1cc(=O)n2nc(C(=O)Nc3cc(Cl)c(O)c(Cl)c3)nc2[nH]1` [112G1], the Binding affinity ranking is 6 (6 for DPPM above 0.1). On the same count and under the same terms, then `COc1ccc(Br)c(-c2nnc(CCC(=O)Nc3cc(C)c(NC(=O)c4nc5[nH]c6c(c(=O)n5n4)CCC6)cc3C)o2)c1` [113B12], with 1 (1 for DPPM 0.00-0.02); and `Cc1cc(NC(=O)c2nc3[nH]c4c(c(=O)n3n2)CCC4)c(C)cc1NC(=O)CCc1nnc(-c2ccccc2)o1` [113B7], with 4 (4 for DPPM 0.06-0.08); and `COc1cccc(NC(=O)c2nc3[nH]c(C)cc(=O)n3n2)c1` [cmpd8], with 3 (3 for DPPM 0.04-0.06).

Take `O=c1c2c([nH]c3nc(COc4ccccc4)nn13)CCC2` [cmpd11]: the Binding affinity ranking is 5 (5 for DPPM 0.08-0.1).
